The subject of series [1] is Plasmodium falciparum. Description: Antimalarial activity against chloroquine-sensitive Plasmodium falciparum 3D7 assessed as growth inhibition at 1 to 2 uM. In kind it is functional, organism-based. The conditions noted are these: dose 1-2 µM.
For the next series, the system named is Hemozoin. Description: Inhibition of beta-hematin formation in Plasmodium falciparum by UV-visible SpectraMax P340 plate reader analysis.
For series [2], the system named is Plasmodium falciparum. In words: Antimalarial activity against chloroquine-sensitive Plasmodium falciparum NF54 assessed as inhibition of parasite growth by lactate dehydrogenase assay. In kind it is functional, organism-based.
Series [3] relates to Plasmodium falciparum. Description: Antimalarial activity against chloroquine-resistant Plasmodium falciparum K1 assessed as inhibition of parasite growth by lactate dehydrogenase assay. Format: functional, organism-based.
Series [4] is described as follows: Selectivity index, ratio of IC50 for cytotoxicity against CHO cells to IC50 for antimalarial activity against chloroquine-sensitive Plasmodium falciparum NF54. In kind it is toxicity, cell-based. The conditions noted are these: hamster, CHO cells versus Plasmodium falciparum NF54; read-out: Ratio IC50.
The test system of series [5] is Plasmodium falciparum. Description: Resistance index, ratio of IC50 for antimalarial activity against chloroquine-resistant Plasmodium falciparum K1 to IC50 for antimalarial activity against chloroquine-sensitive Plasmodium falciparum NF54. In kind it is functional.
A short description of series [6]: Cytotoxicity against CHO cells assessed as reduction in cell viability by MTT assay. Format: toxicity, cell-based. The conditions noted are these: Chinese hamster (Cricetulus griseus).
A further series addresses T1, Falcipain 2 (Plasmodium falciparum, UniProt Q9N6S8).
T1 sequence (Q9N6S8 whole entry): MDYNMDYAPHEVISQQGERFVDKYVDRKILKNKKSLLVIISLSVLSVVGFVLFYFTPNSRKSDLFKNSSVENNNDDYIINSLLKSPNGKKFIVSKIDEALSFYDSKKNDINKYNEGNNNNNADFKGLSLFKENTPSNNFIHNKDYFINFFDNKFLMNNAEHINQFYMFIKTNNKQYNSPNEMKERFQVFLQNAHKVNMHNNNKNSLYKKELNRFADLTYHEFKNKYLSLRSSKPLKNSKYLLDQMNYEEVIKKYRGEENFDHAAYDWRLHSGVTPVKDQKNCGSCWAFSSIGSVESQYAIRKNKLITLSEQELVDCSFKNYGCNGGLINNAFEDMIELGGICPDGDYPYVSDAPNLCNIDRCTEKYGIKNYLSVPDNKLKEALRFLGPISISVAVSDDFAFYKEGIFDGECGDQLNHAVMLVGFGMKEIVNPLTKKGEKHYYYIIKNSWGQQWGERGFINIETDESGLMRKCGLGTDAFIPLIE
Description: Binding affinity to N-terminal 6His-tagged recombinant Plasmodium falciparum FP2 expressed in Escherichia coli M15 assessed as dissociation constant incubated for 15 mins in presence of lysine reactive dye by microscale thermophoretic analysis.

The test system of series [7] is Plasmodium falciparum. Description: Antimalarial activity against schizont stage Plasmodium falciparum infected in erythrocytes assessed as reduction in proteolytic activity at 5 uM pre-incubated for 1 hr followed by Z-Phe-Arg-AMC addition and measured after 5 to 10 mins by confocal microscopic analysis relative to control. Format: functional, Erythrocyte. More on the design: scale not given: the % may be the effect or the level left. To be noted: time 65-70 min.

Series [8] deals with Plasmodium falciparum. In words: Antimalarial activity against chloroquine-sensitive Plasmodium falciparum 3D7 assessed as growth inhibition at 1 uM. Format: functional, organism-based.
The test system of series [9] is Plasmodium falciparum. In words: Antimalarial activity against synchronized ring stage Plasmodium falciparum assessed as reduction in hemozoin level at 25 to 100 nM incubated for 20 hrs by absorbance based analysis. In kind it is functional, organism-based. The conditions noted are these: dose 25-100 nM.
The subject of series [10] is Plasmodium falciparum. In words: Antimalarial activity against synchronized ring stage Plasmodium falciparum assessed as accumulation of free heme at 25 to 100 nM incubated for 20 hrs by absorbance based analysis. In kind it is functional, organism-based. To be noted: dose 25-100 nM.
In series [11] the test system is Plasmodium falciparum. In words: Antimalarial activity against chloroquine-sensitive Plasmodium falciparum 3D7 assessed as growth inhibition at 1 uM relative to control. Further details: scale not given: the % may be the effect or the level left. Format: functional.

Calls of active or inactive are those of the source. No cut-off for these calls is given here.

`Clc1ccc2c(N3CCN(Cc4cn(-c5cccc6ccccc56)nn4)CC3)ccnc2c1`: the result with Plasmodium falciparum [1] was inactive.

Take `O=C(Cn1cc(CN2CCN(c3ccnc4cc(Cl)ccc34)CC2)nn1)Nc1ccccc1[N+](=O)[O-]`: the 50% inhibitory concentration (IC50) with Hemozoin came to 21.4 µM; in the series with Plasmodium falciparum [2] it was 2.9 µM.

With `O=C(Cn1cc(CN2CCN(c3ccnc4cc(Cl)ccc34)CC2)nn1)Nc1ccccc1`, the IC50 with Hemozoin was found to be 19.8 µM; in the series on Plasmodium falciparum [2], 4.98 µM.

As for `COc1ccccc1NC(=O)Cn1cc(CN2CCN(c3ccnc4cc(Cl)ccc34)CC2)nn1`, the concentration for half-maximal inhibition (IC50) with Hemozoin came to 14 µM; in the series on Plasmodium falciparum [2], 3.26 µM.

For `Cc1ccc(NC(=O)Cn2cc(CN3CCN(c4ccnc5cc(Cl)ccc45)CC3)nn2)cc1`, the IC50 in the series on Plasmodium falciparum [3] amounted to 4.37 µM; in the series with Hemozoin it was 18.6 µM; in the series on Plasmodium falciparum [2], 1.8 µM; in [6], 33.8 µM. Moreover, in series [4], the selectivity ratio was 18.8. The “Ratio IC50” value in the series on Plasmodium falciparum [5] turned out to be 2.4.

Turning to `COc1cccc(NC(=O)Cn2cc(CN3CCN(c4ccnc5cc(Cl)ccc45)CC3)nn2)c1`, the IC50 stood at 17.4 µM with Hemozoin and 3.56 µM with Plasmodium falciparum [2].

Regarding `CC(C)C[C@H](NC(=O)[C@H]1O[C@@H]1C(=O)O)C(=O)NCCCCN=C(N)N` [E-64], the Kd at Falcipain 2 came to 1.18 µM. Moreover, the Activity in the series with Plasmodium falciparum [7] is recorded as 100%.

As to `O=C(Cn1cc(CN2CCN(c3ccnc4cc(Cl)ccc34)CC2)nn1)Nc1ccccc1F`, the IC50 in the series with Hemozoin is 21.3 µM; in the series on Plasmodium falciparum [2], 3.16 µM.

For the molecule `Clc1ccc2c(N3CCN(Cc4cn(-c5ccnc6ccccc56)nn4)CC3)ccnc2c1`, the result in the series on Plasmodium falciparum [1] was Active.

Take `O=C(Cn1cc(CN2CCN(c3ccnc4cc(Cl)ccc34)CC2)nn1)Nc1ccc(Cl)cc1`: the figures for the IC50 with Hemozoin and with Plasmodium falciparum [2] were 8.4 µM and 4.68 µM, respectively.

For the molecule `COC(=O)[C@H](Cc1ccccc1)NC(=O)Cn1cc(CN2CCN(c3ccnc4cc(Cl)ccc34)CC2)nn1`, the outcome in the series on Plasmodium falciparum [1] was Active.

Turning to `Cc1cccc(NC(=O)Cn2cc(CN3CCN(c4ccnc5cc(Cl)ccc45)CC3)nn2)c1`, the results for the IC50 with Hemozoin and in the series with Plasmodium falciparum [2] were 17.2 µM and 3.5 µM, respectively.

Take `C[C@@H](NC(=O)Cn1cc(CN2CCN(c3ccnc4cc(Cl)ccc34)CC2)nn1)C(=O)O`: the result in the series with Plasmodium falciparum [1] was inactive.

Turning to `COC(=O)[C@H](C)NC(=O)Cn1cc(COc2cccc3ccccc23)nn1`, the outcome in the series on Plasmodium falciparum [1] was Active.

Consider `COC(=O)c1ccc(NC(=O)Cn2cc(CN3CCN(c4ccnc5cc(Cl)ccc45)CC3)nn2)cc1`, for which the figures for the concentration for half-maximal inhibition (IC50) in the series on Hemozoin and with Plasmodium falciparum [2] were 12.7 µM and 4.14 µM, respectively.

In the case of `O=C(OCc1cn(-c2ccnc3cc(Cl)ccc23)nn1)c1cccc([N+](=O)[O-])c1`, the outcome with Plasmodium falciparum [1] was inactive.

For the molecule `COC(=O)[C@H](C)NC(=O)Cn1cc(CN2CCN(c3ccnc4cc(Cl)ccc34)CC2)nn1`, the outcome in the series on Plasmodium falciparum [8] was Active.

As for `CCN(CC)CCCC(C)Nc1ccnc2cc(Cl)ccc12` (configuration not stated) [CHLOROQUINE], the outcome in the series on Plasmodium falciparum [9] and with Plasmodium falciparum [10] was Active. For the same molecule, in the series on Hemozoin, the midpoint of inhibition, the IC50, lay at 23.3 µM.

Turning to `CCOC(=O)CNC(=O)Cn1cc(CN2CCN(c3ccnc4cc(Cl)ccc34)CC2)nn1`, the result with Plasmodium falciparum [1] was Active.

As to `Cc1ccccc1NC(=O)Cn1cc(CN2CCN(c3ccnc4cc(Cl)ccc34)CC2)nn1`, the figures for the IC50 in the series on Hemozoin and in the series with Plasmodium falciparum [2] were 17.4 µM and 4.17 µM, respectively.

Take `O=C(Cn1cc(CN2CCN(c3ccnc4cc(Cl)ccc34)CC2)nn1)Nc1ccccc1Cl`: the concentration for half-maximal inhibition (IC50) in the series on Plasmodium falciparum [3] is 5.9 µM; with Hemozoin, 19.2 µM; with Plasmodium falciparum [2], 1.79 µM; in series [6] it was 126 µM. Further, the selectivity ratio in [4] is 70.3. The “Ratio IC50” value in the series on Plasmodium falciparum [5] is 3.29.

Regarding `Clc1ccc2c(N3CCN(Cc4cn(-c5ccnc6cc(Cl)ccc56)nn4)CC3)ccnc2c1`, in the series on Plasmodium falciparum [1], the result was Active.

As to `Cc1ccccc1-n1cc(CN2CCN(c3ccnc4cc(Cl)ccc34)CC2)nn1`, the Activity with Plasmodium falciparum [11] is listed as over 50%.

As for `COc1ccc(NC(=O)Cn2cc(CN3CCN(c4ccnc5cc(Cl)ccc45)CC3)nn2)cc1`, the IC50 amounted to 19.7 µM with Hemozoin and 6.73 µM in the series on Plasmodium falciparum [2].

Turning to `O=C(Cn1cc(CN2CCN(c3ccnc4cc(Cl)ccc34)CC2)nn1)Nc1cccc(F)c1`, the IC50 was 2.92 µM in the series with Plasmodium falciparum [3], 10.6 µM with Hemozoin, 1.69 µM with Plasmodium falciparum [2] and 146 µM in series [6]. Moreover, the selectivity ratio in series [4] turned out to be 86.5. Besides, in the series with Plasmodium falciparum [5], the “Ratio IC50” value is on record as 1.7.

Consider `O=C(Cn1cc(CN2CCN(c3ccnc4cc(Cl)ccc34)CC2)nn1)Nc1ccc(Br)cc1`, for which the half-maximal inhibitory concentration (IC50) with Hemozoin was determined as 19.4 µM; in the series with Plasmodium falciparum [2], 6.45 µM.

For `CCN(CC)Cc1cc(Nc2ccnc3cc(Cl)ccc23)ccc1O` [AMODIAQUINE], the IC50 with Hemozoin is 10.9 µM.

As to `O=C(Cn1cc(CN2CCN(c3ccnc4cc(Cl)ccc34)CC2)nn1)Nc1ccc(F)cc1`, the IC50 stood at 3.08 µM in the series on Plasmodium falciparum [3], 20.6 µM in the series with Hemozoin, 1.74 µM with Plasmodium falciparum [2] and 326 µM in [6]. Further, in series [4], the selectivity ratio was 188. In the series on Plasmodium falciparum [5], the “Ratio IC50” value was determined as 1.77.

For the molecule `O=C(Cn1cc(CN2CCN(c3ccnc4cc(Cl)ccc34)CC2)nn1)Nc1ccc([N+](=O)[O-])cc1`, the IC50 in the series with Hemozoin came out at 28.9 µM; in the series on Plasmodium falciparum [2] it was 3.23 µM.

With `Clc1ccc2c(N3CCN(Cc4cn(-c5ccccc5Cl)nn4)CC3)ccnc2c1`, in the series with Plasmodium falciparum [11], the Activity is over 50%.

As to `O=[N+]([O-])c1cccc(-n2cc(CN3CCN(c4ccnc5cc(Cl)ccc45)CC3)nn2)c1`, the Activity with Plasmodium falciparum [11] was over 50%.

`O=C(Cn1cc(CN2CCN(c3ccnc4cc(Cl)ccc34)CC2)nn1)Nc1cccc(Cl)c1`: the half-inhibitory concentration (IC50) in the series on Plasmodium falciparum [3] was 8.68 µM; with Hemozoin, 15.6 µM; with Plasmodium falciparum [2] it was 1.83 µM; in series [6], over 503 µM. The selectivity ratio in series [4] was over 275. The “Ratio IC50” value with Plasmodium falciparum [5] amounted to 4.74.

(Values after ChEMBL document CHEMBL5523667, “Blood-stage antimalarial activity, favourable metabolic stability and in vivo toxicity of novel piperazine linked 7-chloroquinoline-triazole conjugates” (Eur J Med Chem, 2024).)
